Literature values as cited in US20120245201A1, “Isopropylphenidate for Treatment of Attention-Deficit/Hyperactivity Disorder and Fatigue-Related Disorders and Conditions” (priority 2009, published 2012).

What was measured:
[1] = metabolite after MPH; cited from earlier work
mouse model = details: 5 mg/kg i.p.; cited from earlier work

Compound | blood concentrations relative to the parent compound [1] | motor activity (mouse model)
O=C(O)C(c1ccccc1)C1CCCCN1 (centres unmarked) [RA, ritalinic acid] | 30-60 times | –
CCOC(=O)C(c1ccccc1)C1CCCCN1 (stereo not drawn) [d-EPH] | – | significant motor activity
